Measured values published in ChEMBL document CHEMBL2057063, “Exogenous fluorescent tracer agents based on pegylated pyrazine dyes for real-time point-of-care measurement of glomerular filtration rate” (Bioorg Med Chem, 2012).

Experiments:
[1] = Plasma protein binding in rat at 20 uM after 1 hr by HPLC analysis; type: ADME, cell-free; conditions: read-out: PPB (converted)
[2] = Drug excretion in Sprague-Dawley rat urine administered via tail vein measured after 6 hrs by HPLC analysis; type: ADME; conditions: iv, read-out: Ae
[3] = organism: Rattus norvegicus; experiment: Volume of distribution in Sprague-Dawley rat; type: ADME, organism-based; conditions: in vivo
[4] = Terminal elimination half life in Sprague-Dawley rat plasma; type: ADME, cell-free; conditions: read-out: beta t1/2
[5] = Clearance in Sprague-Dawley rat; type: ADME, organism-based; conditions: in vivo
[6] = Clearance in Sprague-Dawley rat in presence of 70 mg/kg probenecid administered 10 mins prior to compound treatment; type: ADME, organism-based; design: dose 70 mg/kg; conditions: in vivo, with probenecid 70 mg/kg
[7] = Terminal elimination half life in Sprague-Dawley rat blood; type: ADME, tissue-based; conditions: read-out: beta t1/2

| Compound | fraction unbound at 1 h, 20 µM [1] | Vd [3] [mL] | half-life [4] [min] | clearance [5] [mL/min] | clearance [6] [mL/min] | half-life [7] [min] | dose excreted at 6 h [2] [%] |
| --- | --- | --- | --- | --- | --- | --- | --- |
| O=C(NCC(O)CO)c1nc(NC[C@H](O)CO)c(C(=O)NCC(O)CO)nc1NC[C@H](O)CO (some centres undefined) |  |  |  |  |  |  | 88 |
| COCCOCCOCCOCCNC(=O)c1nc(N)c(C(=O)NCCOCCOCCOCCOC)nc1N | 1 |  |  |  |  |  | 41 |
| Nc1nc(C(=O)N[C@H](CO)C(=O)O)c(N)nc1C(=O)N[C@H](CO)C(=O)O [RELMAPIRAZIN] |  | 83 |  |  |  |  | 90 |
| COCCOCCOCCOCCOCCOCCOCCOCCNC(=O)c1nc(N)c(C(=O)NCCOCCOCCOCCOCCOCCOCCOCCOC)nc1N | 1 |  |  |  |  |  | 45 |
| CNC(=O)c1c(I)c(NC(C)=O)c(I)c(C(=O)[O-])c1I.[Na+] [IOTHALAMATE SODIUM] |  | 104 |  | 2.5 | 2.2 |  | 80 |
| COCCOCCOCCOCCOCCOCCOCCOCCOCCOCCOCCOCCCNc1nc(C(=O)NCCOCCOCCOCCOCCOCCOCCOCCOCCOCCOCCOCCOCCOCCOCCOCCOCCOCCOCCOCCOCCOCCOCCOCCOC)c(NCCCOCCOCCOCCOCCOCCOCCOCCOCCOCCOCCOCCOC)nc1C(=O)NCCOCCOCCOCCOCCOCCOCCOCCOCCOCCOCCOCCOCCOCCOCCOCCOCCOCCOCCOCCOCCOCCOCCOCCOC | 0.59 | 68 | 31 |  |  |  | 89 |
| COCCOCCOCCOCCOCCOCCOCCOCCOCCOCCOCCOCCOCCOCCOCCOCCOCCOCCOCCOCCOCCOCCOCCOCCCNc1nc(C(=O)NCCOCCOCCOCCOCCOCCOCCOCCOCCOCCOCCOCCOCCOCCOCCOCCOCCOCCOCCOCCOCCOCCOCCOCCOC)c(NCCCOCCOCCOCCOCCOCCOCCOCCOCCOCCOCCOCCOCCOCCOCCOCCOCCOCCOCCOCCOCCOCCOCCOCCOC)nc1C(=O)NCCOCCOCCOCCOCCOCCOCCOCCOCCOCCOCCOCCOCCOCCOCCOCCOCCOCCOCCOCCOCCOCCOCCOCCOC | 0.61 |  |  |  |  |  | 86 |
| COCCOCCOCCOCCOCCOCCOCCOCCOCCOCCOCCOCCNC(=O)c1nc(N)c(C(=O)NCCOCCOCCOCCOCCOCCOCCOCCOCCOCCOCCOCCOC)nc1N | 1 | 70 | 20 |  |  |  | 71 |

Continued, in another order:

| fraction unbound at 1 h, 20 µM [1] | Vd [3] [mL] | half-life [4] [min] | clearance [5] [mL/min] | clearance [6] [mL/min] | half-life [7] [min] | Compound | dose excreted at 6 h [2] [%] |
| --- | --- | --- | --- | --- | --- | --- | --- |
| 0.89 |  |  |  |  |  | COCCOCCOCCNc1nc(C(=O)NCCOCCOCCOCCOCCOCCOCCOCCOCCOCCOCCOCCOCCOCCOCCOCCOCCOCCOCCOCCOCCOCCOCCOCCOC)c(NCCOCCOCCOC)nc1C(=O)NCCOCCOCCOCCOCCOCCOCCOCCOCCOCCOCCOCCOCCOCCOCCOCCOCCOCCOCCOCCOCCOCCOCCOCCOC | 96 |
| 0.87 |  |  |  |  |  | CCCNc1nc(C(=O)NCCOCCOCCOCCOCCOCCOCCOCCOCCOCCOCCOCCOCCOCCOCCOCCOCCOCCOCCOCCOCCOCCOCCOCCOC)c(NCCC)nc1C(=O)NCCOCCOCCOCCOCCOCCOCCOCCOCCOCCOCCOCCOCCOCCOCCOCCOCCOCCOCCOCCOCCOCCOCCOCCOC | 85 |
| 0.99 |  |  |  |  |  | COCCOCCOCCOCCOCCOCCOCCOCCCNc1nc(C(=O)NCCOCCOCCOCCOCCOCCOCCOCCOCCOCCOCCOCCOC)c(NCCCOCCOCCOCCOCCOCCOCCOCCOC)nc1C(=O)NCCOCCOCCOCCOCCOCCOCCOCCOCCOCCOCCOCCOC | 87 |
| 0.95 | 64 | 25 | 2.8 | 2.7 |  | COCCOCCOCCOCCOCCOCCOCCOCCOCCOCCOCCOCCOCCOCCOCCOCCOCCOCCOCCOCCOCCOCCOCCOCCNC(=O)c1nc(N)c(C(=O)NCCOCCOCCOCCOCCOCCOCCOCCOCCOCCOCCOCCOCCOCCOCCOCCOCCOCCOCCOCCOCCOCCOCCOCCOC)nc1N | 96 |
| 0.97 | 61 | 19 | 3.1 | 3.3 | 21.6 | COCCOCCOCCOCCOCCOCCOCCOCCOCCOCCOCCOCCCNc1nc(C(=O)NCCOCCOCCOCCOCCOCCOCCOCCOCCOCCOCCOCCOC)c(NCCCOCCOCCOCCOCCOCCOCCOCCOCCOCCOCCOCCOC)nc1C(=O)NCCOCCOCCOCCOCCOCCOCCOCCOCCOCCOCCOCCOC | 97 |
| 0.7 |  |  |  |  |  | COCCOCCOCCOCCOCCOCCOCCOCCCNc1nc(C(=O)NCCOCCOCCOCCOCCOCCOCCOCCOCCOCCOCCOCCOCCOCCOCCOCCOCCOCCOCCOCCOCCOCCOCCOCCOC)c(NCCCOCCOCCOCCOCCOCCOCCOCCOC)nc1C(=O)NCCOCCOCCOCCOCCOCCOCCOCCOCCOCCOCCOCCOCCOCCOCCOCCOCCOCCOCCOCCOCCOCCOCCOCCOC | 92 |
| 1 |  |  |  |  |  | COCCOCCOCCOCCCNc1nc(C(=O)NCCOCCOCCOCCOCCOCCOCCOCCOCCOCCOCCOCCOC)c(NCCCOCCOCCOCCOC)nc1C(=O)NCCOCCOCCOCCOCCOCCOCCOCCOCCOCCOCCOCCOC | 86 |
